Experimental data: patent USRE38723E1, “Haloalkyl derivatives of reporter molecules used to analyze metabolic activity in cells” (Molecular Probes, Inc., priority 1991, dated 2005)

Experiments:
[1] = test system: lacZ positive CRE BAG 2 cells; test: Cellular retention after loading by hypoosmotic shock (Example 12); type: cell-based
Description: 5-Chloromethylfluorescein di-β-D-galactoside (CMFDG) (Example 1) is dissolved in DMSO to get 20 mM stock solution. A 40 mM stock solution offluorescein di-β-D-galaetoside (FDG) (Molecular Probes) is also made in DMSO as a control. The stock solutions are kept sealed in brown reagent bottles and stored at −20° C.
• (A) FCS-PBS Solution: Phosphate buffered saline (GIBCO), 4% fetal calf serum, 10 mM HEPES, pH 7.2 • (B) Staining Solution: CMFDG: 200 μL of stock solution is diluted with distilled water to 4 mL to get a 1 mM staining solution. FDG: 400 μL of stock solution is diluted to 4 mL with distilled water to get a 4 mM staining solution. 4. Staining and Examination of Cells:
Cells grown on coverslips are transferred to a Petri dish containing 3 mL of FCS-PBS solution and then incubated at 37° C. for 10 minutes. 3 mL of prewarmed (37° C.) 1 mM CMFDG staining solution is added to give a final dye concentration of 0.5 mM The solutions are mixed rapidly. The cells are incubated at 37° C. for exactly one minute. To stop the loading, the cells are transferred to a 1.8 mL of ice-cold FCS-PBS solution. FDG is loaded into cells by using the same procedure except that the final dye concentrations is 2 mM. Cells are then incubated under normal culture conditions to examine the dye retention. Cells are examined without washing at the desired time for their fluorescence under a Zeiss microscope equipped with a FITC filter set (EX 485 nm/EM 530 nm).

[2] = test system: NIH/3T3 cells and CRE BAG 2 cells; settings: 500 μM staining medium for 24 hours
Description: (§1) The same cell lines as used in Example 11 are used for these experiments.

NIH 3T3 cells = test: Cytotoxicity (loss of fluorescence) assay using CMFDG (Example 15); type: cell-based; settings: 10 μM for 30 minutes at 37° C.
Description: 1) Reagents 5-Chloromethylfluorescein di-β-D-galactopyranoside (CMFDG) (Example 1) and 7-(β-D-galactopyranosyloxy)-4-chloromethylcoumarin (Cl-MUG) (Example 3) are separately dissolved at 10 mM anhydrous DMSO and stored frozen at −20° C. until needed. Saponin is dissolved in PBS at a concentration of 0.04%.
NIH/3T3 cells (lacZ negative) and CRE BAG 2 cells (3T3 cells transformed with a retrovirus containing latZ gene) are employed for cellular assays. Both cell lines can be obtained from American Type Culture Collection Co., Rockville, Md. The cells are grown in a humidified atmosphere of 5% CO2 in Dulbecco's modified Eagle's medium supplemented with 10% calf serum, 50 μg/mL gentamicin, 300 μg/mL L-glutamine and 10 mM HEPES pH7.4.
The experiment is most conveniently performed in a CytoFluor™ 2300 fluorescence plate reader (Millipore) but can be performed qualitatively on a microscope slide or quantitatively in a flow cytometery, or in any system that permits washing of the cells following addition of the cytotoxic agent. […] Fluorescence of each well is determined using a 485 nm excitation filter, a 530 nm emission filter and sensitivity setting 1. […] Loss of fluorescence from the sample is correlated with the loss of integrity of the membrane and thus the cytotoxicity of the reagent.

[3] = test system: NIH/3T3 cells and CRE BAG 2 cells; test: Cytotoxicity of CMFDG staining medium (Example 12)
Description: as §1

[4] = test system: lacZ-positive yeast strains EG123 and HR125-5d; test: Measurement of lacZ marker gene expression in transformed yeast (Example 13); type: cell-based, Saccharomyces cerevisiae
Description: Because the CMFDG substrate generates a product that is so well retained by cells (Examples 11 and 12), it can be used for quantitative measurements of lacZ expression. • 1. A series of lacZ gene containing plasmids, each with a modified yeast promoter are used. When transferred into the appropriate strains of Saccharomyces cerevisiae, each plasmid confers a different level of lacZ gene expression. Yeast strains EG123 and HR125-5d, transformed with these plasmids, are grown in special minimal medium for plasmid maintenance and, after reaching the appropriate level of growth, are assayed for lacZ gene expression as measured by β-galactosidase activity. • 2. The β-galactosidase activity of one aliquot of these transformed yeast cells is measured using o-nitrophenyl-β-D-galactopyranoside (ONPG). • 3. Another aliquot of yeast cells is loaded with the fluorogenic substrate CMFDG as indicated in Example 12. Following washing to remove any dye that has leaked from the cells, the fluorescence intensity of the remaining cells as measured in a CytoFluor 2300 fluorescence plate reader (Millipore) can be measured over time. […] The amount of increase over time can be calculated from the slope of the plotted increase using linear regression. Each yeast strain accumulates fluorescent product at a characteristic rate, as reflected in the differences in the slopes of the various lines. • 4. […]

O=C1OC2(c3ccc(O[C@@H]4O[C@H](CO)[C@H](O)[C@H](O)[C@H]4O)cc3Oc3cc(O[C@@H]4O[C@H](CO)[C@H](O)[C@H](O)[C@H]4O)ccc32)c2ccc(CCl)cc21 [CMFDG, 5-chloromethylfluorescein di-β-D-galactopyranoside]
staining of cells after 10 minutes incubation ([1]; 0.5 mM CMFDG versus 2 mM FDG, hypoosmotic shock loading): very well stained and much brighter | stained cells apparently as bright as after 10 minutes incubation ([1]; after incubation for 4 hours, 0.5 mM): more than 70% | cell morphology [2]: morphologically normal | population doubling time versus control [2]: same population doubling time | fluorescence of loaded cells (NIH 3T3 cells): brightly fluorescent | cytotoxicity [3]: no cytotoxicity | fluorescence plotted over time ([4]; each lacZ-positive yeast strain, CytoFluor 2300 plate reader): linear increase in fluorescence | fluorescence intensity over time versus level of lacZ expression (ONPG assay) ([4]; transformed yeast cells): correlates well
